Measurements as given in patent US11053205B2, “Phenazine derivatives as antimicrobial agents” (University of Florida Research Foundation, Incorporated, priority 2017, dated 2021).
≈ marks a conversion by molar mass, not a printed value. Marks after values point to notes of the source that are not given here.

Key:
MRSE 35984 = assay: MIC, broth microdilution (CLSI); settings: for MRSE 35984 MIC: 16 to 18 hours at 37° C.
MRSE 35984 biofilms = assay: Live/Dead staining of biofilms; format: cell-based, Staphylococcus epidermidis; settings: 0.1, 5, and 10 μM, 24 hours
Protocol: (§1) A mid-log culture of MRSE 35894 was diluted 1:1,000-fold and 500 μL was transferred to each compartment of a 4 compartment CELLview dish (Greiner Bio-One 627871). The dish was then incubated for 24 hours at 37° C. After this time, the cultures were removed and the plate was washed with 0.9% saline. The dish was then treated with the compounds in fresh media at various concentrations. DMSO was used as the negative control in this assay. The dish was incubated with the compound for 24 hours at 37° C. After this time, the cultures were removed and the dish was washed with 0.9% saline for 2 minutes. Saline was then removed and 500 μL of the stain (Live/Dead BacLight Viability Kit, Invitrogen) were added for 15 minutes and left in the dark. After this time, the stain was removed and the dish was washed twice with 0.9% saline. Then the dish was fixed with 500 μL 4% paraformaldehyde in PBS for 30 minutes. Images of remaining MRSE biofilms were then taken with a fluorescence microscope. All data were analyzed using Image J software from three independent experiments.
Following biofilm eradication investigations in CBD assays, lead HP 61A was tested against biofilms of MRSE 35984 in live/dead staining experiments (FIG. 30B). After a 24-hour biofilm establishment, HP 61A was added at 0.1, 5, and 10 μM then left to incubate against MRSE 35984 biofilms for an additional 24 hours at 37° C.

HeLa cells [1] = system: HeLa cells
VRE 700221 = assay: MIC, broth microdilution (CLSI); settings: for VRE 700221 MIC: 16 to 18 hours at 37° C.
MRSA BAA-1707 biofilms = assay: Calgary Biofilm Device (CBD) assay, MBC/MBEC; settings: for MRSA BAA-1707 MBEC / MRSA BAA-1707 MBC: CBD; for MRSA BAA-1707 MBEC: biofilm eradication; for MRSA BAA-1707 MBC: planktonic killing
MRSA BAA-1707 [2] = assay: MIC, broth microdilution (CLSI); settings: 0.10 = lowest concentration tested; for MRSA BAA-1707 MIC: 16 to 18 hours at 37° C.
MRSA-1707 biofilms [3] = assay: CBD pulse experiments (two sequential 24 hour treatments); format: cell-based, Staphylococcus aureus; settings: two sequential 24 hour compound treatments
VRE 700221 biofilms = assay: Calgary Biofilm Device (CBD) assay, MBC/MBEC
[4] = system: M. tuberculosis H37Ra (ATCC 25177); assay: MIC assay for Mycobacterium tuberculosis; format: cell-based; settings: Mycobacterium tuberculosis, 168 h; seven days at 37° C.; read-out: MtB H37Ra MIC
Protocol: (§2) The culture was then diluted with fresh medium until an OD600 of 0.01 was reached. […] The final DMSO concentration was maintained at 0.5%. […] Three rows were reserved for each compound. […] OD600 absorbance was recorded using SPECTRAMAX M5 (Molecular Devices). Data obtained from three independent experiments were analyzed using Excel.
as §2, with “SpectraMax” for “SPECTRAMAX”

MRSA BAA-1707 [5] = assay: Macromolecular synthesis inhibition assay; format: cell-based, Staphylococcus aureus
Protocol: Macromolecular synthesis experiments were carried out in methicillin-resistant Staphylococcus aureus BAA-1707. An overnight culture (100 μL) of S. aureus BAA-1707 was sub-cultured into 10 mL of fresh TSBG media, which was allowed to grow to exponential phase (OD600=0.2−0.3) before transferring 500 μL to each well in a 24 well-plate. The test compounds and vehicle control (DMSO) were added to achieve the desired concentrations relative to their MIC values against S. aureus BAA-1707. Treated cultures were then incubated at 37° C. for 30 minutes before radioactive precursors for DNA ([^3H] thymidine (0.5 μCi)), RNA ([^3H] uridine (0.5 μCi)) and protein ([^3H] leucine (1 μCi)) were added. […] DMSO served as the negative control. DNA and RNA radiolabeled cultures were then incubated in 37° C. for 15 minutes before being stopped by adding 60 μL of cold 5% trichloroacetic acid (TCA). The protein synthesis experiment was stopped after 40 minutes by adding 60 μL cold TCA. These mixtures were then incubated at 2° C. for at least 30 minutes before the contents of the plates were transferred onto glass microfiber filters (24 mm) and washed 5 times with 1 mL of 5% TCA. The filters are allowed to dry overnight before 3.5 mL of the scintillation fluid was added to the scintillation vials containing the filters and the radiation counts were measured using liquid scintillation LS 6500.
For these experiments, MRSA-1707 cultures were treated with [^3H]-thymidine (DNA biosynthesis), [^3H]-uridine (RNA biosynthesis) and [^3H]-leucine (protein biosynthesis) in the presence of HP 1 and antibiotic controls (4-16×MIC).

[6] = LDH release assay for HeLa cytotoxicity; settings: human, HeLa cells
human red blood cells = settings: human, 1 h, 200 μM, pH 7.2
MRSA-1 = assay: MIC, broth microdilution (CLSI); settings: for MIC: Staphylococcus aureus, MRSA, read-out: MRSA-1 MIC
MRSA-2 = assay: MIC, broth microdilution (CLSI)
UV-Vis metal(II) binding = format: physicochemical; settings: kinetics of UV-Vis experiments
Protocol: Spectral scanning was performed from 200 to 800 nm in 2 nm increments.

MRSA-1707 biofilms [7] = assay: Live/Dead staining of biofilms; format: cell-based, Staphylococcus aureus; settings: 0.1, 1 and 5 μM, 24 hours
Protocol: as §1, with “To support the CBD assay findings, LIVE/DEAD experiments were performed with potent Compound 27 (FIG. 7). A mid-log” for “A mid-log”, “culture of MRSA-2 was diluted” for “culture of MRSE 35894 was diluted”, “4 compartment […] dish (Greiner” for “4 compartment CELLview dish (Greiner”, “stain was removed, and the” for “stain was removed and the”, “of remaining MRSA-2 biofilms were” for “of remaining MRSE biofilms were”, “Image J software.” for “Image J software from three independent experiments.”
HP 1-17 was tested against MRSA-1707 biofilms in live/dead staining experiments. […] After this time, images of the treated and untreated MRSA-1707 biofilms were obtained using fluorescence microscopy (FIG. 20).

[8] = system: MRSA, MRSE and VRE biofilms; assay: CBD assays against MRSA, MRSE, and VRE biofilms (all strains); settings: strains not given
MRSA BAA-1707 [9] = assay: Metal(II)-cation co-treatment MIC assay; format: cell-based; settings: Staphylococcus aureus
HeLa cells [10] = assay: LDH release assay for HeLa cytotoxicity
S. epi 12228 = assay: MIC, broth microdilution (CLSI); settings: Staphylococcus epidermidis, 12228, read-out: S. epi 12228 MIC
[11] = copper(II) at 200 μM, read-out: MIC w/ Cu2+

SMILES: Oc1c(Br)cc(Br)c2nc3cc(Cl)ccc3nc12 [61A]
- MRSE 35984 MIC (MRSE 35984): 0.1 µM
- biofilm eradication and clearance (live/dead staining) (MRSE 35984 biofilms): highly potent eradication and clearance of MRSE 35984 biofilms
- IC50 (HeLa cells [1]): > 100 µM
- VRE 700221 MIC (VRE 700221): 0.39 µM
- MRSA BAA-1707 MBEC (MRSA BAA-1707 biofilms): 4.69 µM
- MRSA BAA-1707 MIC (MRSA BAA-1707 [2]): 0.038 µM

SMILES: CCCCCCCCCCCCCCCC[N+](C)(C)Cc1ccccc1.[Cl-] [BAC-16, reference compound]
- MRSE 35984 MIC (MRSE 35984): 1.56 µM
- VRE 700221 MIC (VRE 700221): 3.13 µM
- MRSA BAA-1707 MBEC (MRSA BAA-1707 biofilms): 15.6 µM
- MRSA BAA-1707 MBC (MRSA BAA-1707 biofilms): 31.3 µM
- MBEC (pulse treatment) (MRSA-1707 biofilms [3]): 25 µM
- VRE 700221 MBEC (VRE 700221 biofilms; CBD, biofilm eradication): 3.0 µM
- VRE 700221 MBC (VRE 700221 biofilms; CBD, planktonic killing): 5.9 µM
- MRSA BAA-1707 MIC (MRSA BAA-1707 [2]): 1.56 µM

SMILES: Oc1c(Br)cc(Br)c2nc3ccccc3nc12 [HP 1, 2,4-dibromophenazin-1-ol]
- MIC [4]: 25 µM (≈ 8.85 µg/mL)
- RNA biosynthesis inhibition ([3H]-uridine) (MRSA BAA-1707 [5]; at 4×MIC): inhibits both RNA and protein biosynthesis
- protein biosynthesis inhibition ([3H]-leucine) (MRSA BAA-1707 [5]; at 4×MIC): inhibits both RNA and protein biosynthesis
- DNA biosynthesis inhibition ([3H]-thymidine) (MRSA BAA-1707 [5]; at 8×MIC): does not inhibit DNA biosynthesis
- IC50 at 24 h [6]: 100 µM
- Hemolysis at 200 μM (human red blood cells): ≤1%

SMILES: Oc1c(Br)cc(Br)c2nc3c(O)c(Br)cc(Br)c3nc12 [HP 1-15]
- MRSE 35984 MIC (MRSE 35984): >50 µM
- MRSA-1 MIC (MRSA-1; 16 to 18 hours at 37° C.): >50 ^ μM
- VRE 700221 MIC (VRE 700221): >50 µM
- MRSA-2 MIC (MRSA-2; 16 to 18 hours at 37° C.): >50 µM
- MRSA BAA-1707 MIC (MRSA BAA-1707 [2]): >50 µM

SMILES: Cc1cccc2nc3c(O)c(Br)cc(Br)c3nc12 [HP 1-17]
- MIC [4]: 25 µM (≈ 9.2 µg/mL)
- rate of copper(II) chelation (UV-Vis metal(II) binding): faster rate than HP 1
- MIC (MRSA-1): 0.1 µM (≈ 0.0368 µg/mL)
- biofilm eradication and clearance (live/dead staining) (MRSA-1707 biofilms [7]): potent biofilm eradication and clearance response
- Hemolysis at 200 μM (human red blood cells): 6.7%

SMILES: CCc1cccc2nc3c(O)c(Br)cc(Br)c3nc12 [HP 1-18]
- MIC [4]: 25 µM (≈ 9.55 µg/mL)
- MRSE 35984 MIC (MRSE 35984): 0.10^c μM
- MBEC [8]: 0.59 to 2.35 µM
- MIC (VRE 700221; Enterococcus, VRE, read-out: VRE 700221 MIC, 16 to 18 hours at 37° C.): 0.15 to 1.56 µM (≈ 0.0573 to 0.596 µg/mL)
- Hemolysis at 200 μM (human red blood cells): 1.7%
- MRSA BAA-1707 MIC (MRSA BAA-1707 [2]): 0.10^c μM

SMILES: Cc1ccc2nc3c(Br)cc(Br)c(O)c3nc2c1 [HP 1-20]
- melting point: 213 to 215 °C

SMILES: Oc1c(Br)cc(Br)c2nc3c(Cl)cccc3nc12 [HP 1-21]
- MIC [4]: 50 µM (≈ 19.4 µg/mL)
- rate of copper(II) chelation (UV-Vis metal(II) binding): faster rate than HP 1
- MIC (MRSA BAA-1707 [9]; [11]): 6.25 µM
- Hemolysis at 200 μM (human red blood cells): ≤1%

SMILES: Oc1c(Br)cc(Br)c2nc3c(Br)cccc3nc12 [HP 1-23]
- MIC [4]: 25 µM (≈ 10.8 µg/mL)
- selectivity index (HeLa IC50 to MRSA BAA-1707 MIC) (HeLa cells [10]): > 2,000 fold
- IC50 at 24 h [6]: > 100 µM
- Hemolysis at 200 μM (human red blood cells): 5.1%

SMILES: COCCOCCOCCOCCOC(=O)Oc1c(Br)cc(Br)c2nc3c(C)cccc3nc12 [HP 1-25]
- MIC [4]: 12.5 µM (≈ 7.53 µg/mL)
- HeLa cell cytotoxicity at 100 μM (HeLa cells [1]): no HeLa cell cytotoxicity
- MIC (S. epi 12228): 0.1 µM (≈ 0.0602 µg/mL)
- Hemolysis at 200 μM (human red blood cells): ≤1%

SMILES: c1ccc(CN(CCN(Cc2ccccn2)Cc2ccccn2)Cc2ccccn2)nc1 [TPEN, N,N,N′,N′-tetrakis(2-pyridylmethyl)ethane-1,2-diamine, reference compound]
- MIC (MRSE 35984; Staphylococcus epidermidis, MRSE, read-out: MRSE 35984 MIC, 16 to 18 hours at 37° C.): 12.5 µM (≈ 5.31 µg/mL)
- MIC (MRSA BAA-1707 [9]; [11]): 500 µM
- MIC (MRSA BAA-1707 [9]; iron(II) at 200 μM, read-out: MIC w/ Fe2+): 125 µM
- MIC (MRSA BAA-1707 [9]; magnesium(II) at 200 μM, read-out: MIC w/ Mg2+): 62.5 µM
- MIC (MRSA BAA-1707 [9]; no metal(II) cation added, read-out: MIC): 46.9 µM
- MIC (MRSA BAA-1707 [9]; zinc(II) at 200 μM, read-out: MIC w/ Zn2+): 250 µM
- MIC (MRSA-1): 75 µM (≈ 31.8 µg/mL)
- MRSA BAA-1707 MBC (MRSA BAA-1707 biofilms): 250 µM
- MBC (MRSA BAA-1707 biofilms; Staphylococcus aureus, BAA1707|MRSA, read-out: MRSA BAA-1707 MBC, CBD, planktonic killing): 375 µM (≈ 159 µg/mL)
- MIC (MRSA-2; Staphylococcus aureus, MRSA, read-out: MRSA-2 MIC): 50 µM (≈ 21.2 µg/mL)
- MBC (VRE 700221 biofilms; Enterococcus, VRE, read-out: VRE 700221 MBC): 188 µM (≈ 79.8 µg/mL)
- Hemolysis at 200 μM (human red blood cells): ≤1%
- MRSA BAA-1707 MIC (MRSA BAA-1707 [2]): 50 ^ μM
- MIC (MRSA BAA-1707 [2]; Staphylococcus aureus, BAA1707|MRSA, read-out: MRSA BAA-1707 MIC, 16 to 18 hours at 37° C.): 46.9 µM (≈ 19.9 µg/mL)
